Results taken from paper PMC10252683, “Targeting USP-7 by a Novel Fluorinated 5-Pyrazolyl-Urea Derivative” (International Journal of Molecular Sciences, 2023).

Target: T1, Ubiquitin Specific Protease 7 (USP-7) (Homo sapiens, UniProt Q93009)
T1 construct: gene USP7; recombinant USP-7 (BPS Bioscience kit #79256)
Experiment: Ub-AMC fluorescence enzyme assay; supported by DARTS immunoblotting and t-LiP-MRM in HTLA-230 lysate
Type: biochemical

T1 sequence (Q93009 whole entry): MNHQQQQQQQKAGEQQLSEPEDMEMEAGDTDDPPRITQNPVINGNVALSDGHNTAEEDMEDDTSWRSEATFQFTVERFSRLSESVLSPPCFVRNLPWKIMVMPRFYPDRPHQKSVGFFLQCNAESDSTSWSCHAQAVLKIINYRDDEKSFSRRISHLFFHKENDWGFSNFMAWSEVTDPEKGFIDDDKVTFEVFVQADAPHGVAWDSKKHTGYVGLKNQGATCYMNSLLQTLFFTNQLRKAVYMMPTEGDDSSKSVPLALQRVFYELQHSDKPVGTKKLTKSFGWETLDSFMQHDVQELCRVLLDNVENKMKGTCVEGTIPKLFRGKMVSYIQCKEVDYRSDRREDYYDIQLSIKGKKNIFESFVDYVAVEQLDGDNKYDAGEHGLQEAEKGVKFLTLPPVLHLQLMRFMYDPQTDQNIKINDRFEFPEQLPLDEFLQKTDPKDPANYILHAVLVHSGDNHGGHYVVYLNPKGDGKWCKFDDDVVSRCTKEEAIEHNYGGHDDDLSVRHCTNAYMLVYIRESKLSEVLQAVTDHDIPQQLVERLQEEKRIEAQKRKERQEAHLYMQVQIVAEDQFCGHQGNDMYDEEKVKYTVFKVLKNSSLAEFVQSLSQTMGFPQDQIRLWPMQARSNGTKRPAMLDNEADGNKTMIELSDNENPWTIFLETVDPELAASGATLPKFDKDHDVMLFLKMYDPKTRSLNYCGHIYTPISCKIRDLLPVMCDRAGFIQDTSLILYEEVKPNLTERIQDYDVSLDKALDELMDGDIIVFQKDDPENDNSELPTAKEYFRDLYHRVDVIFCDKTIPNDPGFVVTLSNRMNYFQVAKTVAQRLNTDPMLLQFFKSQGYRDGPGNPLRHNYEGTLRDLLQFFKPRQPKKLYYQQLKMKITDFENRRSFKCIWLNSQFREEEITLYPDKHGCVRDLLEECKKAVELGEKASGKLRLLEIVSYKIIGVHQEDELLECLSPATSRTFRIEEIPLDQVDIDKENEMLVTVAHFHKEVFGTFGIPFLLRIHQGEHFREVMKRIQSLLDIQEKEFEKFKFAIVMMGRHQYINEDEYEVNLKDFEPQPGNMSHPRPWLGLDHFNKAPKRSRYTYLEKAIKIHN

IC50: 2770 ± 560 nM
SMILES: CCOC(=O)c1cnn(CC(C)O)c1NC(=O)Nc1cccc(F)c1 (racemic) [STIRUR 41]
